From patent publication US7084301B2 (Ranbaxy Laboratories Limited, priority 2003, dated 2006)
Where two headings read alike, the source gives them in different places.

What was measured:
[1] = biological target: D-3 receptors (Homo sapiens, UniProt P35462); assay: Radioligand-receptor binding assay, human recombinant D3 receptors, [3H]Spiperone
Description: Receptor binding assays were performed using human recombinant D3 receptors. […] Non-specific binding was defined by 25 μM S(−)Sulpiride.

[2] = biological target: T1, rat α1B-adrenoceptor (spleen) (Rattus norvegicus, UniProt P15823); assay: In-vitro functional study, agonist-induced contractile response on isolated rat spleen; assay type: biochemical
T1 sequence (P15823 1-515): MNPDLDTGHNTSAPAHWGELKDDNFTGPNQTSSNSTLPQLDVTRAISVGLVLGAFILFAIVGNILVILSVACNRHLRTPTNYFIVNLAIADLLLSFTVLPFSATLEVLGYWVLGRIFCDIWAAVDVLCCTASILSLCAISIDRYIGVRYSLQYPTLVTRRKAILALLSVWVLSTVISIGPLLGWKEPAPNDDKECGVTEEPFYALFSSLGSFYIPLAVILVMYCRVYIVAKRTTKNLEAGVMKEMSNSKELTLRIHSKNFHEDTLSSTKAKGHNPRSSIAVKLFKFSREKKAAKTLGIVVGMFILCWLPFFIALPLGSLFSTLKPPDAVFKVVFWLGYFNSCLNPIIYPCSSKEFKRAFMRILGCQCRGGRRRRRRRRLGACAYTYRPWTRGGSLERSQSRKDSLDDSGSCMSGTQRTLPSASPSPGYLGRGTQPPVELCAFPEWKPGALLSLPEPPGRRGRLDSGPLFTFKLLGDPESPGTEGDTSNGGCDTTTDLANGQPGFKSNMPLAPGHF
Description: (§1) Aorta, prostate and spleen tissues were isolated from urethane anaesthetized (1.5 gm/kg) male wistar rats. Isolated tissues were mounted in organ bath containing Krebs Henseleit buffer of following compostion (mM): NaCl 118; KCl 4.7; CaCl2 2.5; MgSO4.7H2O 1.2; NaHCO3 25; KH2PO4 1.2; glucose 11.5. Buffer was maintained at 37° C. and aerated with a mixture of 95% O2 and 5% CO2. A resting tension of 2 g (aorta) or 1 g (spleen and prostate) was applied to tissues. Contractile response was monitored using a force displacement transducer and recorded on chart recorders. Tissues were allowed to equilibrate for 2 hours. At the end of equilibration period, concentration response curves to norepinephrine (aorta) and phenylepinephrine (spleen and prostate) were obtained in absence and presence of tested compound (at concentrations of […]). Antagonist affinities were calculated and expressed as pKB vales in Table II.
(§2) To compare the differences in pKB at the α1-arenrenoceptor subtypes one-way ANOVA followed by Dunett ‘t’ test was applied. A p<0.05 was considered statistically significant.

[3] = biological target: T2, rat α1A-adrenoceptor (prostate) (Rattus norvegicus, UniProt P43140); assay: In-vitro functional study, agonist-induced contractile response on isolated rat prostate; assay type: biochemical
T2 sequence (P43140 1-466): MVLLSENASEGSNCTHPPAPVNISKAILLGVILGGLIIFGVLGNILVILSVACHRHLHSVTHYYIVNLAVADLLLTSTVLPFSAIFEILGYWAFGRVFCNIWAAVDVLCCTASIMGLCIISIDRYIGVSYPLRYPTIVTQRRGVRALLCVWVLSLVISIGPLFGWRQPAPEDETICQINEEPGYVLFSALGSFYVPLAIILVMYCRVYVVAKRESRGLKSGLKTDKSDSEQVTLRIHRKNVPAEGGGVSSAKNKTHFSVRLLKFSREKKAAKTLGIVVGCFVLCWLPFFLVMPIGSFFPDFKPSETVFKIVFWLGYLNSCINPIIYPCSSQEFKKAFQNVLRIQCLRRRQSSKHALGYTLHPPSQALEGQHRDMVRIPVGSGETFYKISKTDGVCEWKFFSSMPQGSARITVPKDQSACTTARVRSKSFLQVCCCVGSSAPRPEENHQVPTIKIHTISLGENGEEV
Description: as §1, with “Isolated tissues were mounted in organ bath containing Krebs Henseleit buffer of following compostion (mM): NaCl 118; KCl 4.7; CaCl2 2.5; MgSO4.7H2O 1.2; NaHCO3 25; KH2PO4 1.2; glucose 11.5. Buffer was maintained at 37° C. and aerated with a mixture of 95% O2 and 5% CO2.” left out
as §2

[4] = biological target: T3, 5-HT1A receptors (Homo sapiens, UniProt P08908); assay: biochemical; assay type: binding
T3 sequence (P08908 1-422): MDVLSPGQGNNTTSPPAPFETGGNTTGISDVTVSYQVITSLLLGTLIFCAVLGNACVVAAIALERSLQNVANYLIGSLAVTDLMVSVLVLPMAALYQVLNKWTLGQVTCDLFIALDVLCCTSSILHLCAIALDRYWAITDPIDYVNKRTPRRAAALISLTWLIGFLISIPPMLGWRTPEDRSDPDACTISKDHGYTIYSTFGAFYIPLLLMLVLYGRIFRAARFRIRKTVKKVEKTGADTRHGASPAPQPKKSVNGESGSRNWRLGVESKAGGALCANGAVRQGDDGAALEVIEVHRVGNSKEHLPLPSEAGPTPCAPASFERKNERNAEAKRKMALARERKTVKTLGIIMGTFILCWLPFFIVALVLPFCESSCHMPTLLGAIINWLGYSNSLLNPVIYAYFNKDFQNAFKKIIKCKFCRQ
Description: Receptor binding assays were performed using human recombinant 5HT1A receptors. […] Non-specific binding was defined by 10 μM Metergoline.

Sequence of D-3 receptors (P35462 whole entry): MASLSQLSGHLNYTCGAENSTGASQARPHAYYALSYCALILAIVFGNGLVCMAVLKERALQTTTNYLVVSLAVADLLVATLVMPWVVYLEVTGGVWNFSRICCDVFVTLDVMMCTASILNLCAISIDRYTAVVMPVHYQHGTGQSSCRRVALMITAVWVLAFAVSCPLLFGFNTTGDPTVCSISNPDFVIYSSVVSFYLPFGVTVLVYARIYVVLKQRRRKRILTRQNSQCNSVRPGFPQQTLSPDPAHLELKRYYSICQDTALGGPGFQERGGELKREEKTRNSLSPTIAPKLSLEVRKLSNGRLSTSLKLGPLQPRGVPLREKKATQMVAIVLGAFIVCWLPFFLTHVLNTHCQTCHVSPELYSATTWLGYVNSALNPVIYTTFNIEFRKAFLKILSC

## CCOc1ccccc1OCCN[C@H](C)Cc1ccc(O)c(S(N)(=O)=O)c1 [Formula I, R (−)-5-[2-[[2-(2-ethoxyphenoxy)ethyl]amino]propyl]-2-hydroxybenzenesulfonamide]
[1]
  Ki: 1.78 nM
[1]; Table I and IV
  fold greater α1A versus D3 selectivity as compared to tamsulosin: 14 fold
[1]; human recombinant receptors
  fold lower affinity for D3 receptors than tamsulosin: 6 fold
[2]
  Kb: 0.501 nM
[3]
  Kb: 0.0162 nM
[3]; functional assays, rat tissues
  α1A versus α1B selectivity: 31 fold
[4]
  Ki: 9.77 nM
[4]; Tables I and III
  fold greater α1A versus 5HT1A selectivity as compared to tamsulosin: 27 fold
[4]; human recombinant receptors
  fold lower affinity for 5HT1A receptors than tamsulosin: 12.6 fold

## CCOc1ccccc1OCCNC(C)Cc1ccc(OC)c(S(N)(=O)=O)c1 (single isomer, unassigned; (-)) [Tamsulosin, (−) isomer of 5-[2-[2-(2-ethoxyphenoxy)ethylamino]-2-methylethyl]-2-methoxybenzene sulfonamide, reference compound]
[1]
  Ki: 0.282 nM
[2]; rat spleen, phenylepinephrine-induced contraction, *p < 0.05 vs pKB at prostate tissue, read-out: pKB α1B (converted)
  Kb: 0.275 nM
[3]; rat prostate, phenylepinephrine-induced contraction, read-out: pKB α1A (converted)
  Kb: 0.0309 nM
[4]; human recombinant receptors, read-out: PKi 5HT1A (converted)
  Ki: 0.794 nM
